Patent US20240246946A1, “MODULATORS OF TREX1” (Constellation Pharmaceuticals, Inc., priority 2021, published 2024)

Assays:
full length human TREX1 [1] = target: T1, full length human TREX1 (Homo sapiens, UniProt Q9NSU2); experiment: hTREX1 Biochemical Assay (fluorescence, dsDNA substrate degradation); details: biochemical, read-out: hTREX1 IC50
T1 construct: N-terminally His-Tev tagged full length human TREX1; made in house; host or cells: E. coli
T1 sequence (Q9NSU2 1-314): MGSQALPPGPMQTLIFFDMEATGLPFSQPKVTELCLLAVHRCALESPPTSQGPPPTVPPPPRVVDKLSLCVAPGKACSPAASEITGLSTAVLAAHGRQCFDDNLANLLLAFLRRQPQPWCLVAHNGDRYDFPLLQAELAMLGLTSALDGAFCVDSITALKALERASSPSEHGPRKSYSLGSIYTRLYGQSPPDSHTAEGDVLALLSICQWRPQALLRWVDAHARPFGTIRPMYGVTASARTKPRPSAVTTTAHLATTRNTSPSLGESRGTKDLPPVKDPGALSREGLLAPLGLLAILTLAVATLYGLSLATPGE
How it was run: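 Cleavage of 60 nM TEX615/quencher-labelled dsDNA in pH 7.4 Tris buffer with 5 mM MgCl2, 1.0% DMSO, run 18 hours at 25° C, EDTA-quenched; fluorescence read-out.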

full length human TREX1 [2] = target: T1, full length human TREX1; experiment: TREX1 Kinetics Assays (TR-FRET association and dissociation, global fit with Kintek Explorer); assay type: binding; details: for residence time: hTREX1, TR-FRET kinetics; for koff: hTREX1, TR-FRET, 25° C., global fit
Method: Compound binding kinetics were assessed using a pair of TR-FRET assays which measure the proportion of protein bound to a biotinylated TREX1 inhibitor (“probe”).
N-terminally His-Tev tagged full length human TREX1 (expressed in E. coli and purified in house), complexed with Eu-W1024-anti-6×His (“Eu”; PerkinElmer) in reaction buffer (50 mM Tris, 150 mM NaCl, 2 mM DTT, 0.1 mg/mL BSA, 0.01% (w/v) Tween-20, 5 mM MgCl2, pH 7.4) was combined with an equal volume of test compound in reaction buffer and incubated at 25° C. Concentrations at this stage were 1 nM TREX1/Eu complex, and four concentrations of compound (diluted from 10 mM stocks in 100% DMSO). At defined time points, 18 μL of this mixture was withdrawn and combined with 2 μL probe to a final concentration of 1 μM probe. After incubating for 30 seconds, 18 μL was withdrawn and combined with 2 μL streptavidin-allophycocyanin (“SA-APC”; PerkinElmer) to a final concentration of 1.5 μM SA-APC. Fifteen μL of this mixture was then immediately transferred to a 384-well Black ProxiPlate Plus (PerkinElmer) and read in an EnVision plate reader (PerkinElmer) measuring fluorescence at 615 nm and 665 nm following excitation w/337 nm laser light. Final concentrations were 0.8 nM TREX1/Eu complex, 0.9 μM probe, and 1.5 μM SA-APC.
N-terminally His-Tev tagged full length human TREX1 (expressed in E. coli and purified in house), complexed with Eu-W1024-anti-6×His (“Eu”; PerkinElmer) in reaction buffer (50 mM Tris, 150 mM NaCl, 2 mM DTT, 0.1 mg/mL BSA, 0.01% (w/v) Tween-20, 5 mM MgCl2, pH 7.4) was combined with an equal volume of test compound in reaction buffer. Concentrations at this stage were 100 nM TREX1/Eu complex and 100 nM test compound (diluted from 10 mM stocks in 100% DMSO). Following an equilibration period of at least an hour at 25° C., this mixture was diluted 100-fold into reaction buffer containing 1 μM probe, and incubated at 25° C. At defined time points, 36 μL of the reaction mixture was withdrawn and combined with 4 μL streptavidin-allophycocyanin (“SA-APC”; PerkinElmer) to a final concentration of 1.5 μM SA-APC. Fifteen μL of this mixture was then immediately transferred to duplicate wells of a 384-well Black ProxiPlate Plus (PerkinElmer) and read in an EnVision plate reader (PerkinElmer) measuring fluorescence at 615 nm and 665 nm following excitation w/337 nm laser light.
The TR-FRET signal, a ratio of 665 nm/615 nm emitted light, was converted to fraction enzyme bound to test compound by normalizing to low signal (no enzyme or test compound) and high signal (no test compound) controls. Data from both association and dissociation experiments were fitted globally using Kintek Explorer software, which computes the rate constants directly.

full length mouse TREX1 = target: T2, full length mouse TREX1 (Mus musculus, UniProt Q91XB0); experiment: mTREX1 Biochemical Assay (fluorescence, dsDNA substrate degradation); details: biochemical, read-out: mTREX1 IC50
T2 construct: N-terminally His-Tev tagged full length mouse TREX1; made in house; host or cells: E. coli
T2 sequence (Q91XB0 1-314): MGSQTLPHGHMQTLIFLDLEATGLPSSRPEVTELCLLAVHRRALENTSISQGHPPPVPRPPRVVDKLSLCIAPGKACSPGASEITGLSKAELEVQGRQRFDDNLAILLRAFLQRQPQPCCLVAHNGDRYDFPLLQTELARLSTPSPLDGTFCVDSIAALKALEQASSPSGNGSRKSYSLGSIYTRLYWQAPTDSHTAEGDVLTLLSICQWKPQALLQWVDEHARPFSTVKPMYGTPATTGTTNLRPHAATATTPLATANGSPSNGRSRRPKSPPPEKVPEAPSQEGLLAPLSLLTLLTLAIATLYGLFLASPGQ
How it was run: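 Reaction run 18 h at 25° C. with 60 nM TEX615/quencher-labelled dsDNA and 6 pM mouse TREX1 in Tris buffer (pH 7.4, 5 mM MgCl2, 1.0% DMSO), enzyme having sat 4 h with compound across 10 concentrations. EDTA quench; substrate degradation measured as fluorescence increase.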

[3] = target: T3, human TREX2 (residues M44-A279) (Homo sapiens, UniProt Q9BQ50); experiment: hTREX2 Biochemical Assay (fluorescence, dsDNA substrate degradation); details: biochemical selectivity for hTREX1 vs hTREX2
T3 construct: human TREX2 (residues M44-A279, expressed in E. coli); made in house; host or cells: E. coli
T3 sequence (Q9BQ50 44-279 isoform Q9BQ50-1): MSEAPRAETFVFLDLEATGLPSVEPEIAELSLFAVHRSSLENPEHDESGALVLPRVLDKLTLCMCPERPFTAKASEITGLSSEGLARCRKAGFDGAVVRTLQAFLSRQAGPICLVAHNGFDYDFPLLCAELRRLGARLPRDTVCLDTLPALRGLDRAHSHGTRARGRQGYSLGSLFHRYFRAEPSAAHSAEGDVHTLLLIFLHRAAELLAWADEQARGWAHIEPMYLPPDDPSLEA
How it was run: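 N-His-Tev E. coli enzyme (50 pM) pre-incubated with compound 4 h at 25 °C, then 60 nM TEX615/quencher dsDNA added; 18 h at 25 °C, pH 7.4 Tris buffer with 5 mM MgCl2, 1.0% DMSO. EDTA-quenched; fluorescence 570 ex/615 em from liberated fluorophore, 10-point dose-response.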

hTREX1 = target: T4, hTREX1 (Homo sapiens, UniProt Q9NSU2); experiment: hTREX1 HCT116 Cell Assay (HCT116 dual cells, Lucia luciferase reporter of Type I interferon induction); assay type: cell-based; details: TREX1i 4 h before pBR322/BstNI transfection, read after 48 h
T4 construct: host or cells: HCT116 dual cells
T4 sequence (Q9NSU2 1-314): T1 sequence (Q9NSU2 1-314)
How it was run: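 HCT116 dual cells carrying an ISRE-type STAT1/STAT2-driven secreted Lucia luciferase reporter were pretreated with TREX1 inhibitor for 4 h (≤0.1% DMSO), then transfected with pBR322/BstNI DNA (100 ng/well, Lipofectamine LTX). Luciferase in medium read after 48 h at 37 °C.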

| SMILES | IC50 (full length human TREX1 [1]) | residence time (full length human TREX1 [2]) | koff (full length human TREX1 [2]) | IC50 (full length mouse TREX1) | hTREX1 vs hTREX2 selectivity [3] | IC50 (hTREX1) |
| --- | --- | --- | --- | --- | --- | --- |
| CCc1cnn(C(c2ccccc2Cl)C(C)c2nc(C(=O)Nc3cnoc3)c(O)c(=O)n2C)c1 (single isomer, unassigned) [Example 134 D1E1] | 0.001 to 0.01 µM |  |  | 0.001 to 0.01 µM | A (A = <25 fold selective for hTREX1) | > 0.1 µM |
| Cc1cc(C(c2cc(F)ccc2Cl)C(C)c2nc(C(=O)Nc3cnoc3)c(O)c(=O)n2C)n(C)n1 (single isomer, unassigned) [Example 113 D1E1] | > 0.01 µM |  |  | > 0.01 µM | C (C = >50 fold selective for hTREX1) | 0.01 to 0.1 µM |
| CC(c1nc(C(=O)Nc2cnoc2)c(O)c(=O)n1C)C(c1cnn(C(F)(F)F)c1)c1ccccc1C#N (single isomer, unassigned) [Example 151 D1E1] | < 0.001 µM |  |  | < 0.001 µM | B (B = 25 to 50-fold selective for hTREX1) | 0.01 to 0.1 µM |
| CCn1cc(C(c2ccccc2C#N)C(C)c2nc(C(=O)Nc3cnoc3)c(O)c(=O)n2C)c(C)n1 (single isomer, unassigned) [Example 70 D1E1] | < 0.001 µM |  |  | < 0.001 µM | C (C = >50 fold selective for hTREX1) | < 0.01 µM |
| Cc1cnc(C)c(C(c2cc(F)ccc2C#N)C(C)c2nc(C(=O)Nc3cnoc3)c(O)c(=O)n2C)n1 (single isomer, unassigned) [Example 119 D2E1] | 0.001 to 0.01 µM |  |  | > 0.01 µM | C (C = >50 fold selective for hTREX1) | > 0.1 µM |
| Cc1cc(C(c2cc(F)ccc2C#N)C(C)c2nc(C(=O)Nc3cnoc3)c(O)c(=O)n2C)nn1C (single isomer, unassigned) [Example 112 D2E1] | 0.001 to 0.01 µM |  |  | > 0.01 µM | A (A = <25 fold selective for hTREX1) | > 0.1 µM |
| COCCn1cc(C(c2ccccc2C#N)C(C)c2nc(C(=O)Nc3cnoc3)c(O)c(=O)n2C)c(C)n1 (single isomer, unassigned) [Example 71 D1E1] | < 0.001 µM |  |  | < 0.001 µM | C (C = >50 fold selective for hTREX1) | < 0.01 µM |

More lines, now with the values ahead:

| IC50 (full length human TREX1 [1]) | residence time (full length human TREX1 [2]) | koff (full length human TREX1 [2]) | IC50 (full length mouse TREX1) | hTREX1 vs hTREX2 selectivity [3] | IC50 (hTREX1) | SMILES |
| --- | --- | --- | --- | --- | --- | --- |
| < 0.001 µM | 408 min | 4.08e-05 s⁻¹ |  |  |  | Cc1ncc(C(c2ccccc2C#N)C(C)c2nc(C(=O)Nc3cnoc3)c(O)c(=O)n2C)cn1 (single isomer, unassigned) [Example 67 D1E2] |
|  | 346 min | 4.82e-05 s⁻¹ |  |  |  | Cc1cnc(C(c2ccccc2C#N)C(C)c2nc(C(=O)Nc3cnoc3)c(O)c(=O)n2C)cn1 (single isomer, unassigned) [Example 46 D1E2] |
| 0.001 to 0.01 µM |  |  | > 0.01 µM | A (A = <25 fold selective for hTREX1) | 0.01 to 0.1 µM | COCCn1ncc(C(c2cc(F)ccc2Cl)C(C)c2nc(C(=O)Nc3cnoc3)c(O)c(=O)n2C)c1C (single isomer, unassigned) [Example 108 D2E1] |
| < 0.001 µM |  |  | < 0.001 µM | C (C = >50 fold selective for hTREX1) | < 0.01 µM | CC(c1nc(C(=O)Nc2cnoc2)c(O)c(=O)n1C)C(c1cnn(C)c1)c1ccc(C(F)(F)F)cc1C#N (single isomer, unassigned) [Example 30 D1E1] |
